Measured values: publication PMC6222718, “Ethylenediamine Derived Carboxamides of Betulinic and Ursolic Acid as Potential Cytotoxic Agents” (Molecules : A Journal of Synthetic Chemistry and Natural …, 2018)

Tests used:
518A2 (melanoma) = test: SRB cytotoxicity assay, 518A2; assay type: cell-based, human; details: for EC50: Homo sapiens, SRB assay, 96 h of treatment, 518A2; for Selectivity index (SI) 518A2: SI = EC50 (NIH 3T3)/EC50 (518A2)
Protocol: (§1) The cytotoxicity of ursolic and betulinic carboxamides 3–30 was determined in sulforhodamine B (SRB) assays.
(§2) The cell lines used were human cancer cell lines: 518A2 (melanoma), A2780 (ovarian carcinoma), HT29 (colon adenocarcinoma), MCF-7 (breast adenocarcinoma), 8505C (thyroid carcinoma) and non-malignant mouse fibroblasts NIH 3T3. Cultures were maintained as monolayers in RPMI 1640 medium with L-glutamine (Capricorn Scientific GmbH, Ebsdorfergrund, Germany) supplemented with 10% heat inactivated fetal bovineserum (Sigma-Aldrich Chemie GmbH, Steinheim, Germany) and penicillin/streptomycin (Capricorn Scientific GmbH, Ebsdorfergrund, Germany) at 37 °C in a humidified atmosphere with 5% CO2.
(§3) The cytotoxicity of the compounds was evaluated using the sulforhodamine-B (Kiton-Red S, ABCR) micro culture colorimetric assay. Cells were seeded into 96-well plates on day 0 at appropriate cell densities to prevent confluence of the cells during the period of experiment. After 24 h, the cells were treated with 6 different concentrations (1, 3, 7, 12, 20 and 30 µM) minimum. The final concentration of DMSO/DMF never exceeded 0.5%, which was non-toxic to the cells. After a 96 h treatment, the supernatant medium from the 96-well plates was discarded, the cells were fixed with 10% trichloroacetic acid (TCA) and allowed to rest at 4 °C. After 24 h fixation, the cells were washed in a strip washer and dyed with SRB solution (100 µL, 0.4% in 1% acetic acid) for about 20 min. After dying, the plates were washed four times with 1% acetic acid to remove the excess of the dye and allowed to air-dry overnight. Tris base solution (200 µL, 10 mM) was added to each well and absorbance was measured at λ = 570 nm using a 96-well plate reader (Tecan Spectra, Crailsheim, Germany). The EC50 values were averaged from three independent experiments performed each in triplicate calculated from semi logarithmic dose response curves applying a non-linear 4P Hills-slope equation (GraphPad Prism5; variables top and bottom were set to 100 and 0, respectively).

[1] = tested on: A2780 (ovarian carcinoma); test: SRB cytotoxicity assay, A2780; assay type: cell-based, human; details: for EC50: Homo sapiens, SRB assay, 96 h of treatment, A2780; for Selectivity index (SI) A2780: SI = EC50 (NIH 3T3)/EC50 (A2780)
Protocol: as §1, §2, §3

[2] = tested on: HT29 (colon adenocarcinoma); test: SRB cytotoxicity assay, HT29; assay type: cell-based, human; details: for EC50: Homo sapiens, HT-29, SRB assay, 96 h of treatment, HT29; for Selectivity index (SI) HT29: SI = EC50 (NIH 3T3)/EC50 (HT29)
Protocol: as §1, §2, §3

[3] = tested on: MCF-7 (breast adenocarcinoma); test: SRB cytotoxicity assay, MCF-7; assay type: cell-based, human; details: for EC50: Homo sapiens, MCF7, SRB assay, 96 h of treatment, MCF-7; for Selectivity index (SI) MCF-7: SI = EC50 (NIH 3T3)/EC50 (MCF-7)
Protocol: as §1, §2, §3

[4] = tested on: 8505C (thyroid carcinoma); test: SRB cytotoxicity assay, 8505C; assay type: cell-based, human; details: for EC50: Homo sapiens, SRB assay, 96 h of treatment, 8505C; for Selectivity index (SI) 8505C: SI = EC50 (NIH 3T3)/EC50 (8505C)
Protocol: as §1, §2, §3

[5] = tested on: non-malignant mouse fibroblasts NIH 3T3; test: SRB cytotoxicity assay, NIH 3T3; assay type: cell-based; details: NIH3T3, 96 h of treatment
Protocol: as §1, §2, §3

Row | SMILES | EC50 (518A2 (melanoma)) [nM] | Selectivity index (SI) 518A2 (518A2 (melanoma)) | EC50 [1] [nM] | Selectivity index (SI) A2780 [1] | EC50 [2] [nM] | Selectivity index (SI) HT29 [2] | EC50 [3] [nM] | Selectivity index (SI) MCF-7 [3] | EC50 [4] [nM] | Selectivity index (SI) 8505C [4] | EC50 [5] [nM] | melting point
1 | C=C(C)C1CC[C@]2(C(=O)NCCN3CCNCC3)CC[C@]3(C)C(CCC4[C@@]5(C)CC[C@H](O)C(C)(C)C5CC[C@]43C)C12 (stereo partly drawn) [Compound 28, (3β)-N-(2-Piperazin-1-ylethyl)-3-hydroxy-lup-20(29)-en-28-amide] | 900 ± 210 | 0.89 | 800 ± 40 | 1.00 | 800 ± 180 | 1.00 | 300 ± 20 | 2.67 | 850 ± 170 | 0.94 | 800 ± 220 | 146 to 148 °C (dec.)
2 | C[C@@H]1CC[C@]2(C(=O)NCCN3CCCCC3)CC[C@]3(C)C(=CCC4[C@@]5(C)CC[C@H](O)C(C)(C)C5CC[C@]43C)C2[C@H]1C (stereo partly drawn) [Compound 13, (3β)-N-(2-Piperidin-1-ylethyl)-3-hydroxy-urs-12-en-28-amide] | 12600 ± 200 | 0.28 | 7600 ± 600 | 0.46 | 8400 ± 700 | 0.42 | 11100 ± 1400 | 0.32 | 11100 ± 300 | 0.32 | 3500 ± 600 | 120 to 124 °C
3 | CC(=O)O[C@H]1CC[C@@]2(C)C(CC[C@]3(C)C2CC=C2C4[C@@H](C)[C@H](C)CC[C@]4(C(=O)NCCN4CCNCC4)CC[C@]23C)C1(C)C (stereo partly drawn) [Compound 7, (3β)-N-(2-Piperazin-1-ylethyl)-3-acetyloxy-urs-12-en-28-amide] | 3200 ± 100 | 0.69 | 2400 ± 100 | 0.92 | 1800 ± 200 | 1.22 | 2700 ± 300 | 0.81 | 5400 ± 400 | 0.41 | 2200 ± 100 | 145 to 147 °C
4 | C[C@@H]1CC[C@]2(C(=O)NCCN3CCCC3)CC[C@]3(C)C(=CCC4[C@@]5(C)CC[C@H](O)C(C)(C)C5CC[C@]43C)C2[C@H]1C (stereo partly drawn) [Compound 12, (3β)-N-(2-Pyrrolidin-1-ylethyl)-3-hydroxy-urs-12-en-28-amide] | 5500 ± 100 | 1.13 | 3300 ± 300 | 1.88 | 2600 ± 300 | 2.38 | 3500 ± 1000 | 1.77 | 5700 ± 200 | 1.09 | 6200 ± 400 | 263 to 266 °C (dec.)
5 | CC(=O)O[C@H]1CC[C@@]2(C)C(CC[C@]3(C)C2CC=C2C4[C@@H](C)[C@H](C)CC[C@]4(C(=O)NCCOCCN)CC[C@]23C)C1(C)C (stereo partly drawn) [Compound 9, (3β)-N-[2-(2-Aminoethoxy)ethyl]-3-acetyloxy-urs-12-en-28-amide] | 3500 ± 600 | 0.89 | 3400 ± 500 | 0.91 | 1600 ± 100 | 1.93 | 2300 ± 400 | 1.35 | 5800 ± 400 | 0.53 | 3100 ± 400 | 91 to 94 °C
6 | C=C(C)C1CC[C@]2(C(=O)NCCN3CCCC3)CC[C@]3(C)C(CCC4[C@@]5(C)CC[C@H](OC(C)=O)C(C)(C)C5CC[C@]43C)C12 (stereo partly drawn) [Compound 19, (3β)-N-(2-Pyrrolidin-1-ylethyl)-3-acetyloxy-lup-20(29)-en-28-amide] | 1500 ± 100 | 0.80 | 1400 ± 90 | 0.86 | 500 ± 80 | 2.40 | 1200 ± 200 | 1.00 | 1600 ± 90 | 0.75 | 1200 ± 70 | 143 to 145 °C
7 | CC(=O)O[C@H]1CC[C@@]2(C)C(CC[C@]3(C)C2CC=C2C4[C@@H](C)[C@H](C)CC[C@]4(C(=O)NCCN)CC[C@]23C)C1(C)C (stereo partly drawn) [Compound 3, (3β)-N-(2-Aminoethyl)-3-acetyloxy-urs-12-en-28-amide] | 2700 ± 100 | 0.96 | 2300 ± 100 | 1.13 | 1800 ± 100 | 1.44 | 2000 ± 100 | 1.30 | 4100 ± 400 | 0.63 | 2600 ± 300 | 202 to 205 °C
8 | C=C(C)C1CC[C@]2(C(=O)NCCCCN)CC[C@]3(C)C(CCC4[C@@]5(C)CC[C@H](O)C(C)(C)C5CC[C@]43C)C12 (stereo partly drawn) [Compound 29, (3β)-N-(4-Aminobutyl)-3-hydroxy-lup-20(29)-en-28-amide] | 400 ± 60 | 1.25 | 600 ± 100 | 0.83 | 400 ± 100 | 1.25 | 600 ± 100 | 0.83 | 800 ± 260 | 0.63 | 500 ± 100 | 130 to 133 °C
9 | C[C@@H]1CC[C@]2(C(=O)NCCN3CCNCC3)CC[C@]3(C)C(=CCC4[C@@]5(C)CC[C@H](O)C(C)(C)C5CC[C@]43C)C2[C@H]1C (stereo partly drawn) [Compound 14, (3β)-N-(2-Piperazin-1-ylethyl)-3-hydroxy-urs-12-en-28-amide] | 7000 ± 400 | 0.94 | 4900 ± 400 | 1.35 | 2800 ± 400 | 2.36 | 4400 ± 100 | 1.50 | 7800 ± 500 | 0.85 | 6600 ± 600 | 214 to 217 °C
10 | C=C(C)C1CC[C@]2(C(=O)NCCN)CC[C@]3(C)C(CCC4[C@@]5(C)CC[C@H](OC(C)=O)C(C)(C)C5CC[C@]43C)C12 (stereo partly drawn) [Compound 17, (3β)-N-(2-Aminoethyl)-3-acetyloxy-lup-20(29)-en-28-amide] | 1600 ± 100 | 0.88 | 1400 ± 200 | 1.00 | 1000 ± 300 | 1.40 | 1300 ± 60 | 1.08 | 2500 ± 30 | 0.56 | 1400 ± 100 | 
